Measured values taken from patent publication US7939559B2, “Lipase inhibitors” (Suntory Holdings Limited, priority 2004, dated 2011).
Entries after “also recorded” stand apart in the source; their conditions may differ.

Biological target: T1, porcine pancreatic lipase (Sus scrofa, UniProt P00591)
T1 construct: purchased Sigma
T1 sequence (P00591 1-450): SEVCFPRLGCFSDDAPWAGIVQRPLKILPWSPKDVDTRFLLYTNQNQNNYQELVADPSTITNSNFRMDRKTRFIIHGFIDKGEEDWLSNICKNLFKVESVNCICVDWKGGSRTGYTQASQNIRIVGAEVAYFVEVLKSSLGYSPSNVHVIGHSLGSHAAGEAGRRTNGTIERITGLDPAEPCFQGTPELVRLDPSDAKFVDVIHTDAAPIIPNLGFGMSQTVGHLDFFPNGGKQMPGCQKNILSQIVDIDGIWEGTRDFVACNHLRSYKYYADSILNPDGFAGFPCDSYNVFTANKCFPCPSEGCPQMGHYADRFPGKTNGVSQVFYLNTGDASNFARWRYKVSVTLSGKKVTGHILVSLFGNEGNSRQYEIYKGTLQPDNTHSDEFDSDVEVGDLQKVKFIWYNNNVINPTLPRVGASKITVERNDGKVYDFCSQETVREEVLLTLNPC
Assay: Lipase inhibitory activity assay (4-MUO fluorescent substrate)
Format: biochemical
Settings: for lipase inhibitory activity (in words) / IC50: porcine pancreatic lipase; for lipase inhibitory activity (in words): 4-MUO, comparison among major tea catechins; for IC50: substrate 4-MUO, 25° C., 30 minutes, pH 8.0
Description: A lipase activity assay was performed by using the oleate ester of fluorescent 4-methylumbelliferone (4-MUO) as a substrate to measure the fluorescence of 4-methylumbelliferone produced by reaction.
The buffer used for the assay was 13 mM Tris-HCl (pH 8.0) containing 150 mM NaCl, 1.36 mM CaCl2. The enzyme assay was performed using a 0.1 M solution of the substrate 4-MUO (Sigma) in DMSO diluted 1:1000 in said buffer and a solution of porcine pancreatic lipase (Sigma) prepared at 400 U/ml also in said buffer.
An enzymatic reaction was started by adding 25 μl of the lipase/buffer solution after 50 μl of the 4-MUO/buffer solution and 25 μl of distilled water (or an aqueous solution of each sample) were added and mixed in a 96-well microplate at 25° C. After the reaction was performed for 30 minutes, the reaction was stopped by adding 100 μl of a 0.1 M citrate buffer (pH 4.2) and the fluorescence of 4-methylumbelliferone produced by the reaction (excitation 355 nm, emission 460 nm) was measured using a fluorescence plate reader (Fluoroskan Asent CF from Labsystems).
The inhibitory activity of each test sample was determined as IC50(μM), i.e. the amount of the sample giving 50% inhibition of the activity of the control (distilled water).

Compound	lipase inhibitory activity (in words)	IC50 [nM]	lipase inhibitory activity relative to GCG (12) (fold higher activity than (−)-gallocatechin 3-O-gallate)	lipase inhibitory activity relative to EGCG (6) (fold higher activity than (−)-epigallocatechin 3-O-gallate)
O=C(O[C@@H]1Cc2c(O)cc(O)cc2O[C@H]1c1cc(O)c(O)c(O)c1)c1cc(O)c(O)c(O)c1 [compound 12, (−)-gallocatechin 3-O-gallate]	showed lipase inhibitory activity	437		
O=C(O[C@@H]1Cc2c(O)cc3c(c2O[C@@H]1c1cc(O)c(O)c(O)c1)C1(O)C(=O)O[C@H]([C@@H](O)CO)C1(O)O3)c1cc(O)c(O)c(O)c1 (stereo partly drawn) [compound 15, 8-C-ascorbyl(−)-epigallocatechin 3-O-gallate]		791		
Oc1cc(O)c2c(c1)O[C@H](c1cc(O)c(O)c(O)c1)[C@@H](O)C2 [compound 11, (+)-gallocatechin]		> 20000		
(−)-epiafzelechin 3-O-gallate [compound 1]		2580		
O=C(O[C@@H]1Cc2c(O)cc(O)cc2O[C@@H]1c1cc(O)c(O)c(O)c1)c1cc(O)c(O)c(O)c1 [compound 6, (−)-epigallocatechin 3-O-gallate]	showed lipase inhibitory activity; also recorded: showed the strongest activity among these catechins	349		
O=C(/C=C/c1ccc(O)cc1)O[C@@H]1Cc2c(O)cc(O)cc2O[C@@H]1c1cc(O)c(O)c(O)c1 [compound 8, (−)-epigallocatechin 3-O-p-coumaroate]		885		
O=C1O[C@H]([C@@H](O)CO)C2(O)Oc3cc(O)c4c(c3C12O)O[C@H](c1cc(O)c(O)c(O)c1)[C@H](O)C4 (stereo partly drawn) [compound 14, 8-C-ascorbyl(−)-epigallocatechin]		646		
COc1cc(C(=O)O[C@@H]2Cc3c(O)cc(O)cc3O[C@@H]2c2ccc(O)c(O)c2)cc(O)c1O [compound 4, (−)-epicatechin 3-O-(3′-O-methyl-gallate)]		680		
O=C(Oc1cc(O)cc2c1C[C@H](OC(=O)c1cc(O)c(O)c(O)c1)[C@@H](c1cc(O)c(O)c(O)c1)O2)c1cc(O)c(O)c(O)c1 [compound 13, (−)-gallocatechin 3,5-di-O-gallate]		213	about twice higher	
O=C(Oc1cc(O)cc2c1C[C@@H](OC(=O)c1cc(O)c(O)c(O)c1)[C@@H](c1cc(O)c(O)c(O)c1)O2)c1cc(O)c(O)c(O)c1 [compound 7, (−)-epigallocatechin 3,5-di-O-gallate]		98		about 3.5 times
O=C(O[C@@H]1Cc2c(O)cc(O)cc2O[C@H]1c1ccc(O)c(O)c1)c1cc(O)c(O)c(O)c1 [compound 10, (−)-catechin 3-O-gallate]	showed lipase inhibitory activity	543		
Oc1cc(O)c2c(c1)O[C@H](c1ccc(O)c(O)c1)[C@@H](O)C2 [compound 9, (+)-catechin]	did not show lipase inhibitory activity	> 20000		
Oc1cc(O)c2c(c1)O[C@H](c1cc(O)c(O)c(O)c1)[C@H](O)C2 [compound 5, (−)-epigallocatechin]		> 20000		
Oc1cc(O)c2c(c1)O[C@H](c1ccc(O)c(O)c1)[C@H](O)C2 [compound 2, (−)-epicatechin]		> 20000		
(−)-epicatechin 3-O-gallate [compound 3]	showed lipase inhibitory activity	452		
